Source: patent US20240101548A1, “HYDROXAMATE COMPOUND, PREPARATION METHOD THEREFOR AND APPLICATION THEREOF” (SHENZHEN CHIPSCREEN BIOSCIENCES CO., LTD., priority 2020, published 2024)
Read-outs that look alike come from different tables or passages of the source.

Assays:
[1] = tested on: EPO-induced JAK2 signal pathway; assay: EPO-induced proliferation of UT-7 cells (JAK2 signal); type: cell-based, human; settings: Homo sapiens, UT7; UT-7 cell proliferation, EPO 10 ng/mL, 72 hours; read-out: Inhibition activity IC50 on EPO-induced JAK2 signal pathway
Method: The cytokine EPO, i.e. erythropoietin, can promote the proliferation and division of erythroid progenitor cells, and the signal pathway induced by EPO coupling with its receptor is mediated by JAK2-STAT5.
Human promegakaryocytic leukemia cell line UT-7 was commercially available from Cell Resource Center, Institute of Basic Medicine, Chinese Academy of Medical Sciences. The culture medium was RPIM1640 containing 10% FBS, and EPO was added for a final concentration of 10 ng/mL.
The inhibition rate of the tested compound on EPO-induced cell proliferation was calculated using Microsoft Excel.
UT-7 cell line was inoculated in 96-well plate with flat bottom at 15000 cells per well, each well was added with 10 ng/mL of human recombinant EPO (Human EPO PEPROTECH 100-64-10UG), along with tested compound respectively for a final concentration of 0, 100, 1000 or 10000 nM. After culture at 37° C. and 5% CO2 for 72 hours, alamarBlue™ Cell Viability Reagent was added to each well following the instructions. After incubation at 37° C. for color reaction, the fluorescence value at Ex530/Em590 was detected using Tecan Spark™ 10M multimode microplate reader.
(§1) The well in which neither compound nor cytokine was added was designated as 00 control well, and the fluorescence value in the wells in which the final concentration of compound was 0 was designated as 100 control. The inhibition activity MC50 ofthe tested compound on JAK2 could be calculated from the inhibition rate ofthe tested compound on EPO-induced cell proliferation at different doses.

[2] = tested on: IL-2-induced JAK1/JAK3 signal pathway; assay: IL-2-induced proliferation of KHYG-1 cells (JAK1/JAK3 signal); type: cell-based, human; settings: Homo sapiens, read-out: Inhibition activity IC50 on IL-2-induced JAK1/JAK3 signal pathway
Description: The main physiological function of cytokine IL-2 is to stimulate and maintain the proliferation and differentiation of T cells. Generally, IL-2 dependent T cells cannot survive in in-vitro culture for a long time, but the addition of IL-2 can make them continue to proliferate. The signal pathway induced by IL-2 coupling with its receptor is mediated by JAK1/JAK3-STAT5, so the inhibitor of JAK1 and/or JAK3 can inhibit the proliferation of IL-2 dependent cells.
Human natural killer cell lymphoma cell line KHYG-1 was commercially available from Health Science Research Resources Bank (HSRRB), and relevant culture conditions referred to those from HSRRB.
The inhibition rate of the tested compound on IL-2-induced cell proliferation was calculated using Microsoft Excel.
After culture at 37° C. and 5% CO2 for 72 hours, alamarBlue™ Cell Viability Reagent was added to each well following the instructions.
as §1, with “0%” for “00”, “100%” for “100”, “[…] of the” for “MC50 ofthe”, “JAK1/JAK3” for “JAK2”, “of the” for “ofthe”, “IL-2-induced” for “EPO-induced”

[3] = KHYG-1 cell proliferation, IL-2 10 ng/mL, 72 hours

Compound | IC50 [1] [µM] | IC50 [2, 3] [µM] | IC50 ([2]; KHYG-1, 72 h) [µM]
CONC(=O)c1cnc(NC(=O)C2CC2)cc1Nc1cccn(-c2nccs2)c1=O [Example 1, 6-(cyclopropylcarboxamido)-N-methoxy-4-((2-oxo-1-(thiazol-2-yl)-1,2-dihydropyridin-3-yl)amino)nicotinamide] | > 10 | > 10 | 
CONC(=O)c1cnc(NC(=O)C2CC2)cc1Nc1cccc(-c2nc3ccccc3n2C)c1OC [Example 3, 6-(cyclopropylcarboxamido)-N-methoxy-4-((2-methoxy-3-(1-methyl-1H-benzo[d]imidazol-2-yl)phenyl)amino)nicotinamide] | > 10 | > 10 | 
CONC(=O)c1cnc(Nc2cccnc2OC)cc1Nc1ccccc1N(C)S(C)(=O)=O [Example 5] | > 10 | > 10 | 
CONC(=O)c1cnc(NC(=O)C2CC2)cc1Nc1ccc(OC)cc1N(C)S(C)(=O)=O [Example 6, 6-(cyclopropylcarboxamido)-N-methoxy-4-((4-methoxy-2-(N-methylmethanesulfonamido)phenyl)amino)nicotinamide] | > 10 | > 10 | 
CONC(=O)c1cnc(NC(=O)C2CC2)cc1Nc1ccc(OC)nc1N(C)S(C)(=O)=O [Example 7, 6-(cyclopropylcarboxamido)-N-methoxy-4-((6-methoxy-2-(N-methylmethanesulfonamido)pyridin-3-yl)amino)nicotinamide] | > 10 | > 10 | 
CONC(=O)c1cnc(Nc2ccc(F)cn2)cc1Nc1ccc(OC)nc1N(C)S(C)(=O)=O [Example 8, 6-((5-fluoropyridin-2-yl)amino)-N-methoxy-4-((6-methoxy-2-(N-methylmethanesulfonamido)pyridin-3-yl)amino)nicotinamide] | > 10 | > 10 | 
CONC(=O)c1cnc(Nc2cccnc2OC)cc1Nc1ccc(OC)nc1N(C)S(C)(=O)=O [Example 9, N-methoxy-4-((6-methoxy-2-(N-methylmethanesulfonamido)pyridin-3-yl)amino)-6-((2-methoxypyridin-3-yl)amino)nicotinamide] | > 10 | > 10 | 
CONC(=O)c1cnc(Nc2cccc(F)n2)cc1Nc1ccc(C(F)(F)F)cc1N(C)S(C)(=O)=O [Example 11, 6-((6-fluoropyridin-2-yl)amino)-N-methoxy-4-((2-(N-methylmethanesulfonamido)-4-(trifluoromethyl)phenyl)amino)nicotinamide] | > 10 | > 10 | 
CONC(=O)c1cnc(Nc2ccc(F)cc2)cc1Nc1ccc(C2CC2)cc1N(C)S(C)(=O)=O [Example 15, 4-((4-cyclopropyl-2-(N-methylmethanesulfonamido)phenyl)amino)-6-((4-fluorophenyl)amino)-N-methoxy nicotinamide] | > 10 | > 10 | 
CONC(=O)c1cnc(Nc2ccc(F)cc2)cc1Nc1cccnc1N(C)S(C)(=O)=O [Example 17, 6-((4-fluorophenyl)amino)-N-methoxy-4-((2-(N-methylmethanesulfonamido)pyridin-3-yl)amino)nicotinamide] | > 10 | > 10 | 
CC(C)ONC(=O)c1cnc(Nc2cccc(F)n2)cc1Nc1ccc(C2CC2)cc1N(C)S(C)(=O)=O [Example 23, 4-((4-cyclopropyl-2-(N-methylmethanesulfonamido)phenyl)amino)-6-((6-fluoropyridin-2-yl)amino)-N-isopropoxy nicotinamide] | > 10 | > 10 | 
C#Cc1ccc(Nc2cc(Nc3cccc(F)n3)ncc2C(=O)NOC(C)C)c(N(C)S(C)(=O)=O)c1 [Example 24] | > 10 | > 10 | 
CCONC(=O)c1cnc(Nc2cc(C)nc(C)n2)cc1Nc1cccc(-c2cnn(C)c2)c1OC [Example 25, 6-((2,6-dimethylpyrimidin-4-yl)amino)-N-ethoxy-4-((2-methoxy-3-(1-methyl-1H-pyrazol-4-yl)phenyl)amino)nicotinamide] | > 10 | > 10 | 
CCONC(=O)c1cnc(NC(=O)C2CC2)cc1Nc1cccc(-c2cnn(C)c2)c1OC [Example 26, 6-(cyclopropylcarboxamido)-N-ethoxy-4-((2-methoxy-3-(1-methyl-1H-pyrazol-4-yl)phenyl)amino)nicotinamide] | > 10 | > 10 | 
CCONC(=O)c1cnc(Nc2ccc(C3CC3)cn2)cc1Nc1ccccc1N(C)S(C)(=O)=O [Example 27, 6-((5-cyclopropylpyridin-2-yl)amino)-N-ethoxy-4-((2-(N-methylmethanesulfonamido)phenyl)amino)nicotinamide] | > 10 | > 10 | 
CONC(=O)c1cnc(NC(=O)C2CC2)cc1Nc1ccc2cnn(C)c2c1 [Example 28, 6-(cyclopropylcarboxamido)-N-methoxy-4-((1-methyl-1H-indazol-6-yl)amino)nicotinamide] | > 10 | > 10 | 
CONC(=O)c1cnc(Nc2cccc(F)n2)cc1Nc1cccc(-c2ccn(C)n2)c1OC [Example 30, 6-((6-fluoropyridin-2-yl)amino)-N-methoxy-4-((2-methoxy-3-(1-methyl-1H-pyrazol-3-yl)phenyl)amino)nicotinamide] | > 10 | > 10 | 
CONC(=O)c1cnc(NC(=O)C2CC2)cc1Nc1cccc(C#N)c1OC [Example 31, 4-((3-cyano-2-methoxyphenyl)amino)-6-(cyclopropylcarboxamido)-N-methoxy nicotinamide] | > 10 | > 10 | 
CONC(=O)c1cnc(NC(=O)C2CC2)cc1Nc1cccc(F)c1N(C)S(C)(=O)=O [Example 32, 6-(cyclopropylcarboxamido)-4-((3-fluoro-2-(N-methylmethanesulfonamido)phenyl)amino)-N-methoxy nicotinamide] | > 10 | > 10 | 
CONC(=O)c1cnc(NC(=O)C2CC2)cc1Nc1cccc(C)c1N(C)S(C)(=O)=O [Example 33, 6-(cyclopropylcarboxamido)-N-methoxy-4-((3-methyl-2-(N-methylmethanesulfonamido)phenyl)amino)nicotinamide] | > 10 | > 10 | 
CONC(=O)c1cnc(NC(=O)C2CC2)cc1Nc1ccccc1S(=O)(=O)N(C)C [Example 34, 6-(cyclopropylcarboxamido)-4-((2-(N,N-dimethylaminosulfonyl)phenyl)amino)-N-methoxy nicotinamide] | > 10 | > 10 | 
CONC(=O)c1cnc(NC(=O)C2CC2)cc1Nc1cccnc1N(C)S(C)(=O)=O [Example 35, 6-(cyclopropylcarboxamido)-N-methoxy-4-((2-(N-methylmethanesulfonamido)pyridin-3-yl)amino)nicotinamide] | > 10 | > 10 | 
CONC(=O)c1cnc(Nc2cccc(F)n2)cc1Nc1ccccc1S(=O)(=O)N(C)C [Example 37, 4-((2-(N,N-dimethylaminosulfonyl)phenyl)amino)-6-((6-fluoropyridin-2-yl)amino)-N-methoxy nicotinamide] | > 10 | > 10 | 
CONC(=O)c1cnc(NC(=O)C2CC2)cc1Nc1ccccc1OC1COC1 [Example 39, 6-(cyclopropylcarboxamido)-N-methoxy-4-((2-(oxetan-3-yloxy)phenyl)amino)nicotinamide] | > 10 |  | > 10
CONC(=O)c1cnc(Nc2cccc(F)n2)cc1Nc1ccccc1OC1COC1 [Example 40] | > 10 | > 10 | 
CONC(=O)c1cnc(NC(=O)C2CC2)cc1Nc1cccc(-c2cnn(C)c2)c1C#N [Example 48, 4-((2-cyano-3-(1-methyl-1H-pyrazol-4-yl)phenyl)amino)-6-(cyclopropylcarboxamido)-N-methoxy nicotinamide] | > 10 | > 10 | 
CONC(=O)c1cnc(Nc2ccc(F)cn2)cc1Nc1cccc(-c2cnn(C)c2)c1C#N [Example 49, 4-((2-cyano-3-(1-methyl-1H-pyrazol-4-yl)phenyl)amino)-6-((5-fluoropyridin-2-yl)amino)-N-methoxy nicotinamide] | > 10 | > 10 | 
N#CC[C@H](C1CCCC1)n1cc(-c2ncnc3[nH]ccc23)cn1 [ruxolitinib, reference compound] | < 0.1 |  | 
